Source: US10214531B2 (Institute for Drug Discovery, LLC, priority 2013, dated 2019)
Structures can show the parent of a compound that is named as a salt.

Biological target: recombinant human AMCase (Homo sapiens, UniProt Q9BZP6)
Experiment: Human AMCase Activity Assay
Type: biochemical
Conditions: recombinant hAMCase, 4-methylumbelliferyl chitobioside substrate, citrate buffer pH 5.2, 37° C., 60 minutes; read-out: Activity (IC50 value key)
Description: Human AMCase Activity Assay
The assay was run in the 96-well plate format, each reaction in the total volume of 100 μl. 4-Methylumbelliferyl B-D-N,N′ diacetylchitobioside hydrate was used as a substrate for the enzyme. Upon hydrolysis by AMCase, the substrate releases 4-methylumbelliferyl (4MU), when ionized in basic pH, emits fluorescence of 460 nm.
Briefly, 40 μl of a substrate was added to each well, followed by 10 μl of compound dilution and 50 μl of hAMCase recombinant enzyme solution. The reaction was carried out in citrate buffer, pH 5.2, in the dark, at 37° C. for 60 minutes with shaking.

Sequence of recombinant human AMCase (Q9BZP6 22-476): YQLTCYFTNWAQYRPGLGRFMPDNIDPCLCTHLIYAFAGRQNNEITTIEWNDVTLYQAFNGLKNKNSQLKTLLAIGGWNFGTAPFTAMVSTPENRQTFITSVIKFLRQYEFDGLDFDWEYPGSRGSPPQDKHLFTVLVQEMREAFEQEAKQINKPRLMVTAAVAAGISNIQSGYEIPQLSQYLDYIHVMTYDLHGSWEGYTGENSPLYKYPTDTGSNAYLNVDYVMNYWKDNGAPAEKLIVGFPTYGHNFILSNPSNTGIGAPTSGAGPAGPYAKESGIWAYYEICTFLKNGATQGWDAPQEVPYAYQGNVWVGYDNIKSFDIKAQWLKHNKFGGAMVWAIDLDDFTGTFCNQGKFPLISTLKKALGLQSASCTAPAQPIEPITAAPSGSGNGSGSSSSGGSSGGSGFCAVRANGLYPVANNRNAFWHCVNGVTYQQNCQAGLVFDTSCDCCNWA

Row | SMILES | IC50 [µM]
1 | C[C@@H](CN1CCN(c2nc(N)n[nH]2)CC1)Oc1ccc(Br)cc1 [Example 62, (S)-5-(4-(2-(4-bromophenoxy)propyl)piperazin-1-yl)-1H-1,2,4-triazol-3-amine] | 0.1 to 1
2 | Nc1n[nH]c(N2CCC(CNC(=O)c3cccc(Br)c3)CC2)n1 [Example 69, N-((1-(3-amino-1H-1,2,4-triazol-5-yl)piperidin-4-yl)methyl)-3-bromo benzamide] | > 100
3 | Nc1n[nH]c(N2CCN(C(=O)C(O)Cc3ccccc3Cl)CC2)n1 (centres unmarked) [Example 73, 1-(4-(3-amino-1H-1,2,4-triazol-5-yl)piperazin-1-yl)-3-(2-chlorophenyl)-2-hydroxypropan-1-one] | > 100
4 | Nc1n[nH]c(N2CCN(C(=O)COc3ccc(Cl)c([N+](=O)[O-])c3)CC2)n1 [Example 74, 1-(4-(3-amino-1H-1,2,4-triazol-5-yl)piperazin-1-yl)-2-(4-chloro-3-nitrophenoxy)ethanone] | > 100
5 | Nc1n[nH]c(N2CCN(C(=O)[C@@H](N)Cc3ccc(Cl)cc3Cl)CC2)n1 [Example 75-1, (S)-2-amino-1-(4-(3-amino-1H-1,2,4-triazol-5-yl)piperazin-1-yl)-3-(2,4-dichlorophenyl)propan-1-one dihydrochloride] | > 100
6 | Nc1n[nH]c(N2CCN(C(=O)[C@@H](N)Cc3ccccc3Cl)CC2)n1 [Example 75-2, (S)-2-amino-1-(4-(3-amino-1H-1,2,4-triazol-5-yl)piperazin-1-yl)-3-(2-chlorophenyl)propan-1-one dihydrochloride] | > 100
7 | CC(=O)NC(CC(=O)N1CCN(c2nc(N)n[nH]2)CC1)c1ccc(F)cc1 (centres unmarked) [Example 76, N-(3-(4-(3-amino-1H-1,2,4-triazol-5-yl)piperazin-1-yl)-1-(4-fluorophenyl)-3-oxopropyl)acetamide] | > 100
8 | Nc1n[nH]c(N2CCN(CCO)CC2)n1 [Example 77, 2-(4-(3-amino-1H-1,2,4-triazol-5-yl)piperazin-1-yl)ethanol] | > 100
9 | Nc1n[nH]c(N2CCN(CCOc3ccccc3)CC2)n1 [Example 78, 5-(4-(2-phenoxyethyl)piperazin-1-yl)-1H-1,2,4-triazol-3-amine] | > 100
10 | Nc1n[nH]c(N2CCN(CCOc3ccccc3Cl)CC2)n1 [Example 79, 5-(4-(2-(2-chlorophenoxy)ethyl)piperazin-1-yl)-1H-1,2,4-triazol-3-amine] | 10 to 100
11 | Nc1n[nH]c(N2CCN(CCOCc3ccccc3)CC2)n1 [Example 80, 5-(4-(2-(benzyloxy)ethyl)piperazin-1-yl)-1H-1,2,4-triazol-3-amine] | > 100
12 | COc1ccc(OCCN2CCN(c3nc(N)n[nH]3)CC2)cc1 [Example 81, 5-(4-(2-(4-methoxyphenoxy)ethyl)piperazin-1-yl)-1H-1,2,4-triazol-3-amine] | 10 to 100
13 | Nc1n[nH]c(N2CCN(CCOc3ccc4[nH]ccc4c3)CC2)n1 [Example 82, 5-(4-(2-((1H-indol-5-yl)oxy)ethyl)piperazin-1-yl)-1H-1,2,4-triazol-3-amine] | > 100
14 | Nc1n[nH]c(N2CCN(CCOc3ccccc3-c3ccccc3)CC2)n1 [Example 83, 5-(4-(2-([1,1′-biphenyl]-2-yloxy)ethyl)piperazin-1-yl)-1H-1,2,4-triazol-3-amine] | 10 to 100
15 | CC(C)c1ccccc1OCCN1CCN(c2nc(N)n[nH]2)CC1 [Example 84, 5-(4-(2-(2-isopropylphenoxy)ethyl)piperazin-1-yl)-1H-1,2,4-triazol-3-amine] | 10 to 100
16 | Nc1n[nH]c(N2CCN(CCOc3ccccc3F)CC2)n1 [Example 85, 5-(4-(2-(2-fluorophenoxy)ethyl)piperazin-1-yl)-1H-1,2,4-triazol-3-amine] | 10 to 100
17 | Nc1n[nH]c(N2CCN(CCOc3cccc(Cl)c3)CC2)n1 [Example 86, 5-(4-(2-(3-chlorophenoxy)ethyl)piperazin-1-yl)-1H-1,2,4-triazol-3-amine] | 10 to 100
18 | Cc1cccc(Cl)c1OCCN1CCN(c2nc(N)n[nH]2)CC1 [Example 87, 5-(4-(2-(2-chloro-6-methylphenoxy)ethyl)piperazin-1-yl)-1H-1,2,4-triazol-3-amine] | 10 to 100
19 | C[C@H](CN1CCN(c2nc(N)n[nH]2)CC1)Oc1ccc(Br)cc1 [Example 90, (R)-5-(4-(2-(4-bromophenoxy)propyl)piperazin-1-yl)-1H-1,2,4-triazol-3-amine] | 0.1 to 1

Next, values leading:

Row | IC50 [µM] | SMILES
20 | 10 to 100 | CCC(CN1CCN(c2nc(N)n[nH]2)CC1)Oc1ccc(Cl)cc1 (centres unmarked) [Example 63, 5-(4-(2-(4-chlorophenoxy)butyl)piperazin-1-yl)-1H-1,2,4-triazol-3-amine]
21 | 10 to 100 | C[C@H](CN1CCN(c2nc(N)n[nH]2)CC1)Oc1ccc(Cl)cc1 [Example 64, (R)-5-(4-(2-(4-chlorophenoxy)propyl)piperazin-1-yl)-1H-1,2,4-triazol-3-amine]
22 | 10 to 100 | C[C@@H](CN1CCN(c2nc(N)n[nH]2)CC1)Oc1ccc(Cl)cc1 [Example 65, (S)-5-(4-(2-(4-chlorophenoxy)propyl)piperazin-1-yl)-1H-1,2,4-triazol-3-amine]
23 | 10 to 100 | Nc1n[nH]c(N2CCN(CCCc3ccc(Cl)cc3)C(CO)C2)n1 (centres unmarked) [Example 66, (4-(3-amino-1H-1,2,4-triazol-5-yl)-1-(3-(4-chlorophenyl)propyl)piperazin-2-yl)methanol]
24 | > 100 | Nc1n[nH]c(N2CCC(NC(=O)Nc3ccc(Cl)cc3)CC2)n1 [Example 67, 1-(1-(3-amino-1H-1,2,4-triazol-5-yl)piperidin-4-yl)-3-(4-chlorophenyl)urea]
25 | > 100 | Nc1n[nH]c(N2CCC(NC(=O)Nc3ccc(F)c(F)c3)CC2)n1 [Example 68, 1-(1-(3-amino-1H-1,2,4-triazol-5-yl)piperidin-4-yl)-3-(3,4-difluorophenyl)urea]
26 | > 100 | Nc1n[nH]c(N2CCC(CC(=O)Nc3ccc(Br)cc3)CC2)n1 [Example 70, 2-(1-(3-amino-1H-1,2,4-triazol-5-yl)piperidin-4-yl)-N-(4-bromophenyl)acetamide]
27 | > 100 | Nc1n[nH]c(N2CCC(NC(=O)C(O)c3ccc(Cl)cc3)CC2)n1 (centres unmarked) [Example 71, N-(1-(3-amino-1H-1,2,4-triazol-5-yl)piperidin-4-yl)-2-(4-chlorophenyl)-2-hydroxyacetamide]
28 | > 100 | Nc1n[nH]c(N2CCN(C(=O)[C@H](O)Cc3ccc(Cl)cc3)CC2)n1 [Example 72, (R)-1-(4-(3-amino-1H-1,2,4-triazol-5-yl)piperazin-1-yl)-3-(4-chlorophenyl)-2-hydroxypropan-1-one]
29 | 1 to 10 | Nc1n[nH]c(N2CCC(NCCc3ccc(Cl)cc3)CC2)n1 [Example 88, 1-(3-amino-1H-1,2,4-triazol-5-yl)-N-(4-chlorophenethyl)piperidin-4-amine]
30 | > 100 | CN(Cc1ccc(Cl)cc1)C(=O)C1(C)CCN(c2nc(N)n[nH]2)CC1 [Example 91, 1-(3-amino-1H-1,2,4-triazol-5-yl)-N-(4-chlorobenzyl)-N,4-dimethyl piperidine-4-carboxamide]
31 | < 0.1 | CC(C)(C)CCN(CCc1ccc(Cl)cc1)C1CCN(c2nc(N)n[nH]2)CC1 [Example 93, 1-(3-amino-1H-1,2,4-triazol-5-yl)-N-(4-chlorophenethyl)-N-(3,3-dimethylbutyl) piperidin-4-amine]
32 | < 0.1 | CC(C)(C)CN(CCc1ccc(Cl)cc1)C1CCN(c2nc(N)n[nH]2)CC1 [Example 94, 1-(3-amino-1H-1,2,4-triazol-5-yl)-N-(4-chlorophenethyl)-N-neopentyl-piperidin-4-amine dihydrochloride]
33 | < 0.1 | Nc1n[nH]c(N2CCC(N(CCc3ccc(Br)cc3)Cc3ccccc3Cl)CC2)n1 [Example 98, 1-(3-amino-1H-1,2,4-triazol-5-yl)-N-(4-bromophenethyl)-N-(2-chlorobenzyl) piperidin-4-amine]
34 | < 0.1 | Nc1n[nH]c(N2CCC(N(CCc3ccc(Cl)cc3)Cc3cccc(CO)c3)CC2)n1 [Example 100, (3-(((1-(3-amino-1H-1,2,4-triazol-5-yl)piperidin-4-yl)(4-chlorophenethyl)amino)methyl)phenyl)methanol]
35 | < 0.1 | Cc1ccc(CN(CCc2ccc(Cl)cc2)C2CCN(c3nc(N)n[nH]3)CC2)cc1 [Example 102, 1-(3-amino-1H-1,2,4-triazol-5-yl)-N-(4-chlorophenethyl)-N-(4-methylbenzyl) piperidin-4-amine]
36 | 0.1 to 1 | C[C@@H](c1ccccc1)N(CCc1ccc(Cl)cc1)C1CCN(c2nc(N)n[nH]2)CC1 [Example 103, (S)-1-(3-amino-1H-1,2,4-triazol-5-yl)-N-(4-chlorophenethyl)-N-(1-phenylethyl) piperidin-4-amine]
37 | < 0.1 | Nc1n[nH]c(N2CCC(N(CCc3ccc(Cl)cc3)Cc3ccc(C(F)(F)F)cc3)CC2)n1 [Example 104, 1-(3-amino-1H-1,2,4-triazol-5-yl)-N-(4-chlorophenethyl)-N-(4-(trifluoromethyl)benzyl)piperidin-4-amine]
38 | < 0.1 | Nc1n[nH]c(N2CCC(N(CCc3ccc(Br)cc3)Cc3cccc4ccncc34)CC2)n1 [Example 105, 1-(3-amino-1H-1,2,4-triazol-5-yl)-N-(4-bromophenethyl)-N-(isoquinolin-8-ylmethyl) piperidin-4-amine]
39 | 0.1 to 1 | Nc1n[nH]c(N2CCC(N(CCc3ccc(Cl)cc3)[C@@H](CO)c3ccccc3)CC2)n1 [Example 107, (R)-2-((1-(3-amino-1H-1,2,4-triazol-5-yl)piperidin-4-yl)(4-chlorophenethyl)amino)-2-phenylethan-1-ol]
40 | < 0.1 | Nc1n[nH]c(N2CCC(N(CCc3ccc(Cl)cc3)Cc3ccncc3)CC2)n1 [Example 108, 1-(3-amino-1H-1,2,4-triazol-5-yl)-N-(4-chlorophenethyl)-N-(pyridin-4-ylmethyl) piperidin-4-amine]
41 | 10 to 100 | COC[C@@H](c1ccccc1)N(CCc1ccc(Cl)cc1)C1CCN(c2nc(N)n[nH]2)CC1 [Example 109]
